# Experimental data from US12171230B2, “Herbicidal compositions” (Bayer Aktiengesellschaft, priority 2018, dated 2024).
# Where “and” joins values, the source holds several entries; their conditions need not be identical. Identical values can stand only once.
# What was measured:
# Format in all cases: in vivo
# [1] = system: Matricaria inodora; assay: Post-emergence herbicidal action against Matricaria inodora; conditions: for Herbicidal action in [%] 14 DAT against Matricaria inodora: post-emergence
# [2] = system: Lolium rigidum; assay: Post-emergence herbicidal action against Lolium rigidum
# Procedure, shortened: (§1)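 Dose unit: g a.i./ha (100% active). Scoring in days after application (DAT). E^A = sum of single-application effects; E^C = Colby expected value.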
# [3] = system: Lolium rigidum (resistant biotype); assay: Post-emergence herbicidal action against Lolium rigidum (resistant biotype)
# Procedure, shortened: as §1
# [4] = system: Phalaris minor; assay: Post-emergence herbicidal action against Phalaris minor
# Procedure, shortened: as §1
# [5] = system: Kochia scoparia; assay: Post-emergence herbicidal action against Kochia scoparia; conditions: 1.7 g of a.i./ha
# Description: (§2) The following abbreviations are used in the description and the tables that follow: • g of a.i./ha=grams of active substance (active ingredient) (=100% active compound) per hectare; • The sum total of the effects of the individual applications is reported under E^A; • expected values according to Colby are each reported under E^C.
# (§3) The rating period is reported in days after application (DAT).
# [6] = system: Alopecurus myosuroides; assay: Post-emergence herbicidal action against Alopecurus myosuroides
# Procedure, shortened: as §1
# [7] = system: Brachiaria plantaginea; assay: Post-emergence herbicidal action against Brachiaria plantaginea
# Description: as §2, §3
# [8] = system: Digitaria horizontalis; assay: Post-emergence herbicidal action against Digitaria horizontalis
# Description: as §2, §3
# [9] = system: Veronica hederifolia; assay: Post-emergence herbicidal action against Veronica hederifolia
# Description: as §2, §3
# [10] = system: Brachiaria decumbens; assay: Post-emergence herbicidal action against Brachiaria decumbens; conditions: g of a.i./ha: 200, 100, 100 + 200
# Description: as §2, §3
# [11] = system: Viola tricolor; assay: Post-emergence herbicidal action against Viola tricolor
# Procedure, shortened: as §1
# [12] = system: Abutilon theophrasti; assay: Post-emergence herbicidal action against Abutilon theophrasti
# Procedure, shortened: as §1
# [13] = (Z61) post-emergence, g of a.i./ha: 200, 100, 100 + 200
smiles,measurement,setting,value
"C=C[C@]1(C(=O)N[C@H]2CO[C@@H](C(=O)OC)C2)CC(c2cc(F)cc(F)c2)=NO1 (relative stereo) [Compound A3, methyl rel-(2R,4R)-4-[[(5S)-3-(3,5-difluorophenyl)-5-vinyl-4H-isoxazole-5-carbonyl]amino]tetrahydrofuran-2-carboxylate]",Herbicidal action,"[1]; 28 DAT, 1 g a.i./ha",0%
same,Herbicidal action against Matricaria inodora,"[1]; 28 DAT, 1 g of a.i./ha",15%
same,Herbicidal action against Matricaria inodora,"[1]; 28 DAT, 16 g of a.i./ha",15%
same,Herbicidal action 14 DAT against Matricaria inodora,"[1]; (Z61) post-emergence, g of a.i./ha: 1, 270, 30, 1 + 270, 1 + 30",0%
same,Herbicidal action in [%] 14 DAT against Matricaria inodora,[1]; 4 g of a.i./ha,30%
same,Herbicidal action in [%] 14 DAT against Matricaria inodora,[1]; 16 g of a.i./ha,40%
same,Herbicidal action 14 DAT against Lolium rigidum,[2]; 1 g of a.i./ha,35%
same,Herbicidal action 28 DAT against Lolium rigidum,[2]; 1 g of a.i./ha,15%
same,Herbicidal action 28 DAT against Lolium rigidum,[2]; 4 g of a.i./ha,50%
same,Herbicidal action in [%] 14 DAT against Lolium rigidum,[2]; 1 g of a.i./ha,40%
same,Herbicidal action in [%] 14 DAT against Lolium rigidum,[2]; 4 g of a.i./ha,85%
same,Herbicidal action in [%] 28 DAT against Lolium rigidum,[2]; 1 g of a.i./ha,10%
same,Herbicidal action in [%] 28 DAT against Lolium rigidum,[2]; 4 g of a.i./ha,70%
same,Herbicidal action 14 DAT against Lolium rigidum,"[2]; (Z61) post-emergence, g of a.i./ha: 1, 270, 90, 30, 1 + 270, 1 + 90, 1 + 30",35%
same,Herbicidal action 14 DAT against Lolium rigidum (resistant biotype),[3]; 1 g of a.i./ha,15% and 30%
same,Herbicidal action 28 DAT against Lolium rigidum (resistant biotype),[3]; 1 g of a.i./ha,0%
same,Herbicidal action 14 DAT against Lolium rigidum (resistant biotype),[3]; 4 g of a.i./ha,40% and 60%
same,Herbicidal action in [%] 14 DAT against Lolium rigidum (resistant biotype),[3]; 1 g of a.i./ha,30%
same,Herbicidal action in [%] 14 DAT against Lolium rigidum (resistant biotype),[3]; 4 g of a.i./ha,60%
same,Herbicidal action 28 DAT against Lolium rigidum (resistant biotype),[3]; 16 g of a.i./ha,80%
same,Herbicidal action in [%] 28 DAT against Lolium rigidum (resistant biotype),[3]; 1 g of a.i./ha,0%
same,Herbicidal action in [%] 28 DAT against Lolium rigidum (resistant biotype),[3]; 4 g of a.i./ha,40%
same,Herbicidal action in [%] 28 DAT against Lolium rigidum (resistant biotype),[3]; 16 g of a.i./ha,80%
same,Herbicidal action 28 DAT against Lolium rigidum (resistant biotype),"[3]; (Z61) post-emergence, g of a.i./ha: 4, 1, 270, 90, 4 + 270, 1 + 90, 1 g of a.i./ha",0%
same,Herbicidal action 28 DAT against Lolium rigidum (resistant biotype),"[3]; (Z61) post-emergence, g of a.i./ha: 4, 1, 270, 90, 4 + 270, 1 + 90, 4 g of a.i./ha",10%
same,Herbicidal action 14 DAT against Phalaris minor,[4]; 1 g of a.i./ha,10%
same,Herbicidal action 28 DAT against Phalaris minor,[4]; 1 g of a.i./ha,0% and 10%
same,Herbicidal action 28 DAT against Phalaris minor,[4]; 4 g of a.i./ha,70%
same,Herbicidal action in [%] 14 DAT against Phalaris minor,[4]; 1 g of a.i./ha,20%
same,Herbicidal action in [%] 14 DAT against Phalaris minor,[4]; 4 g of a.i./ha,85%
same,Herbicidal action in [%] 14 DAT against Phalaris minor,[4]; 16 g of a.i./ha,85%
same,Herbicidal action 28 DAT against Phalaris minor,[4]; 16 g of a.i./ha,40%
same,Herbicidal action in [%] 28 DAT against Phalaris minor,[4]; 1 g of a.i./ha,10%
same,Herbicidal action in [%] 28 DAT against Phalaris minor,[4]; 16 g of a.i./ha,85%
same,Herbicidal action 21 DAT against Kochia scoparia,[5],30%
same,Herbicidal action 14 DAT against Alopecurus myosuroides,[6]; 1 g of a.i./ha,15%
same,Herbicidal action 28 DAT against Alopecurus myosuroides,[6]; 1 g of a.i./ha,15%
same,Herbicidal action 28 DAT against Alopecurus myosuroides,[6]; 4 g of a.i./ha,50% and 60%
same,Herbicidal action in [%] 14 DAT against Alopecurus myosuroides,[6]; 1 g of a.i./ha,30%
same,Herbicidal action in [%] 14 DAT against Alopecurus myosuroides,[6]; 4 g of a.i./ha,75%
same,Herbicidal action in [%] 28 DAT against Alopecurus myosuroides,[6]; 1 g of a.i./ha,10%
same,Herbicidal action in [%] 28 DAT against Alopecurus myosuroides,[6]; 4 g of a.i./ha,60%
same,Herbicidal action 28 DAT [%] against Brachiaria plantaginea,[7]; 100 g of a.i./ha,82%
same,Herbicidal action 28 DAT against Brachiaria plantaginea,[7]; [13],82%
same,Herbicidal action 28 DAT against Brachiaria plantaginea,"[7]; A3/Asulam, post-emergence, g of a.i./ha by row: 720, 100, 100 + 720",82%
same,Herbicidal action 28 DAT against Digitaria horizontalis,[8]; [13],96%
same,Herbicidal action 28 DAT against Digitaria horizontalis,"[8]; A3/Asulam, first sub-table, post-emergence, g of a.i./ha by row: 720, 100, 100 + 720",96%
same,Herbicidal action 28 DAT against Digitaria horizontalis,"[8]; A3/Asulam, second sub-table, post-emergence, g of a.i./ha by row: 720, 100, 100 + 720",87%
same,Herbicidal action in [%] 14 DAT against Veronica hederifolia,[9]; 1 g of a.i./ha,10%
same,Herbicidal action in [%] 14 DAT against Veronica hederifolia,[9]; 4 g of a.i./ha,30%
same,Herbicidal action 14 DAT against Veronica hederifolia,[9]; 16 g of a.i./ha,40%
same,Herbicidal action 14 DAT against Veronica hederifolia,"[9]; g of a.i./ha: 16, 270, 16 + 270",40%
same,Herbicidal action 28 DAT against Brachiaria decumbens,[10],87%
same,Herbicidal action 14 DAT against Viola tricolor,[11]; 1 g of a.i./ha,50%
same,Herbicidal action 28 DAT against Viola tricolor,[11]; 1 g of a.i./ha,15%
same,Herbicidal action 28 DAT against Viola tricolor,[11]; 4 g of a.i./ha,30%
same,Herbicidal action 14 DAT against Viola tricolor,[11]; 16 g of a.i./ha,85%
same,Herbicidal action 28 DAT against Viola tricolor,[11]; 16 g of a.i./ha,20%
same,Herbicidal action 28 DAT against Viola tricolor,"[11]; (Z61) post-emergence, g of a.i./ha: 16, 1, 30, 16 + 30, 1 + 30, 1 g of a.i./ha",15%
same,Herbicidal action 28 DAT against Viola tricolor,"[11]; (Z61) post-emergence, g of a.i./ha: 16, 1, 30, 16 + 30, 1 + 30, 16 g of a.i./ha",20%
same,Herbicidal action 21 DAT [%] against Abutilon theophrasti,[12]; 1.7 g of a.i./ha,10%
same,Herbicidal action 21 DAT against Abutilon theophrasti,[12]; 1.7 g of a.i./ha,0%
same,Herbicidal action 21 DAT against Abutilon theophrasti,[12]; 5 g of a.i./ha,30%
same,Herbicidal action 21 DAT [%] against Abutilon theophrasti,[12]; 15 g of a.i./ha,35%
